The values that follow come from ChEMBL document CHEMBL5252620, “Introducing Conformational Restraints on 25CN-NBOH: A Selective 5-HT2A Receptor Agonist” (ACS Med Chem Lett, 2023).

Values joined by “and” are separate entries in the source; they are usually repeats but may differ in a detail not shown here. Equal values may be shown once. Active and inactive are the calls of the source. No cut-off for these calls is given here.

Test [1] addresses 5-hydroxytryptamine receptor 2A (Homo sapiens, UniProt P28223). As to the kind of experiment: Agonist activity at 5-HT2AR (unknown origin) stably expressed in HEK293 cells measured after 1 hr by fluorescence based Ca2+/Fluo-4 assay. It is filed as cell-based.
For test [2], the target named is T1, 5-hydroxytryptamine receptor 2C (Homo sapiens) (UniProt P28335).
T1 sequence (whole entry): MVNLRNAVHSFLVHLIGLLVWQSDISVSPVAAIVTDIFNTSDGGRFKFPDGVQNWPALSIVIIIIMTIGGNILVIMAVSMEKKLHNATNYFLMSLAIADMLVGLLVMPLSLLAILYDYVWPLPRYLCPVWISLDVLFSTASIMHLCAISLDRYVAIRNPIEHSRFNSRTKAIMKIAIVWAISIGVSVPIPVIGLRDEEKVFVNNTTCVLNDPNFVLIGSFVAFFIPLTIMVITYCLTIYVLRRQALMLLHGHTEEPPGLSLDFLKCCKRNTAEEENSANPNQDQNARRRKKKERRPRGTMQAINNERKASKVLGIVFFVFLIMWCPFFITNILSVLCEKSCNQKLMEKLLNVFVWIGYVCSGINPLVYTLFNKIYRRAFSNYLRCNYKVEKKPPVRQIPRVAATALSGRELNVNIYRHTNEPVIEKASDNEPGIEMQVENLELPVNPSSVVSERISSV
As to the kind of experiment: Agonist activity at 5-HT2CR (unknown origin) stably expressed in HEK293 cells at 10 to 100 uM measured after 1 hr by fluorescence based Ca2+/Fluo-4 assay. Type of test: cell-based. The note with it: filed as agonist, dose 10-100 µM.

Test [3] deals with T2, 5-hydroxytryptamine receptor 2C (Homo sapiens, UniProt P28335).
T2 sequence (P28335 whole entry): T1 sequence (whole entry)
Description: Agonist activity at 5-HT2CR (unknown origin) stably expressed in HEK293 cells measured after 1 hr by fluorescence based Ca2+/Fluo-4 assay

Test [4] has as its target T1, 5-hydroxytryptamine receptor 2C (Homo sapiens). In words: Agonist activity at 5-HT2CR (unknown origin) stably expressed in HEK293 cells assessed as maximal response measured after 1 hr by fluorescence based Ca2+/Fluo-4 assay relative to control. Type of test: cell-based. The conditions noted are these: filed as agonist.
Test [5] shares this target. As to the kind of experiment: Agonist activity at 5-HT2CR (unknown origin) stably expressed in HEK293 cells at 30 to 100 uM measured after 1 hr by fluorescence based Ca2+/Fluo-4 assay. The conditions noted are these: filed as agonist, dose 30-100 µM. Type of test: cell-based.

Chain of 5-hydroxytryptamine receptor 2A (P28223 whole entry): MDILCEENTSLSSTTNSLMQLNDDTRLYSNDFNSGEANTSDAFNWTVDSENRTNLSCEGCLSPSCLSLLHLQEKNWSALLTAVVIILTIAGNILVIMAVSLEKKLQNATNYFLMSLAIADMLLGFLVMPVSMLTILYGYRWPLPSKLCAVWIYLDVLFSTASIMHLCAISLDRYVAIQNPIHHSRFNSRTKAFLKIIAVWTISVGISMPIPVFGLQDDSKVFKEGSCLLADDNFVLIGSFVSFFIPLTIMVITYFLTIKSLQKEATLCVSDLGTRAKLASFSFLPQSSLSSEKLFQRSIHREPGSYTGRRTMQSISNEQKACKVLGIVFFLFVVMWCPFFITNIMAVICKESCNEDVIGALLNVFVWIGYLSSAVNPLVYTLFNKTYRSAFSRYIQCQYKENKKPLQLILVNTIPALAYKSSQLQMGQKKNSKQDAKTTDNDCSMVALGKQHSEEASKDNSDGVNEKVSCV

As for `COc1cc(C[C@H]2CCC[C@H](c3ccccc3O)N2)c(OC)cc1C#N`, in test [1] (read-out: EC50), the EC50 was 930 nM. The outcome in test [2] was Active.

As for `COc1cc(CCNCc2ccccc2O)c(OC)cc1C#N`, the EC50 in test [3] is 178 nM and 170 nM. Moreover, in test [4], the Rmax was determined as 78%.

For the compound `COc1cc(CC2CCCC(c3ccccc3O)N2)c(OC)cc1C#N` (centres undefined), in test [5], the outcome was Active. Moreover, the EC50 in test [1] (read-out: EC50) was 2700 nM; in test [1] (read-out: pEC50 (converted)) it was 3550 nM.

For the compound `COc1cc(C[C@@H]2CCC[C@@H](c3ccccc3O)N2)c(OC)cc1C#N`, in test [1] (read-out: EC50), the EC50 was 91 nM. The outcome in test [2] was Active.
